Data from patent US20100099109A1, “Methods for Analyzing Drug Response” (NODALITY, INC., A DELAWARE CORPORATION, priority 2008, published 2010).
“Also recorded” adds a separate entry of the source. Where two headings read alike, the source gives them in different places.

What was measured:
[1] = cited from earlier work
[2] = test system: U937 cell line; test: Mylotarg/Nocodazole exposure, multiparameter flow cytometry of DNA damage, cell cycle and apoptosis; type: cell-based; conditions: 24 hours exposure
Source text: ATM activity also phosphorylates Chk2 and p53. […] Cyclin B1 is produced during the G2 phase of the cell cycle and its accumulation drives the cell cycle into M phase. Therefore, low levels of Cyclin B1 mark G1 and S phases, high levels mark G2 phase, and higher levels mark M phase. Histone H3 (S28) becomes phosphorylated in M phase, making p-Histone H3(S28) a useful marker of cells in M phase and not G2. It is also possible to monitor the G2/M phases of the cell cycle by measuring the phosphorylation status of Cdk1, previously known as Cdc2, a cyclin-dependent protein kinase that controls the cell cycle entry from G2 to M phase. An inhibitory phosphorylation on Cdk1 is removed by CDC25C in the M phase transition, allowing G2 cells to be distinguished from M cells based on levels of p-Cdk1. […] Treating cells with the microtubule polymerization inhibitor Nocodazole induces cells cycle arrest in M phase without DNA damage.
(§1) The experimental measurements included forward and side scatter, the use of viability dyes (amine aqua and propidium iodide (PI)), and determination of cell cycle and apoptosis by measuring DNA content with DRAQ5. Additionally, cell cycle progression was measured by determining levels of cyclin B1, phosphorylated histone H3, and phosphorylated CDK-1. All these determinations were made in freshly thawed as well as in cultured cycling cells.
(§2) After incubation with fluorochrome-conjugated antibody panels that recognized: p-H2AX, p-Chk2, p-ATM, p-53, cleaved PARP and cleaved caspase 3, cells were processed for cytometry as described above.

[3] = test system: Mylotarg refractory cell lines; test: Mylotarg exposure and modulated signaling in resistant cell lines; type: cell-based; conditions: exposed for 5-15 minutes
Method: as §1, §2
(§3) Experiments were conducted in which cell lines were exposed for 5-15 minutes to growth factors and cytokines, after which cells were fixed, permeabilized and incubated with panels of fluorochrome-conjugated antibody panels that recognized intracellular signaling molecules. After processing, cells were acquired on the cytometer.

[4] = target: T1, MDR1 drug pump activity in KG-1 cells (Homo sapiens, UniProt P08183); test: Functional drug transporter assay (DIOC2(3) efflux); type: cell-based; conditions: Mylotarg resistant KG-1 cells; co-incubation with inhibitor
T1 construct: KG-1 cells are included as a control since they express functional MDR-1; endogenous in cells; host or cells: KG-1 cells
Method: (§4) Determination of transporter functional activity: Transporter activity is measured in subpopulations gated for CD45, CD11b, CD34, CD38, and other surface markers including drug transporters themselves. Fluorescent dyes including calcein-acetoxymethyl ester in the presence or absence of inhibitors cyclosporin or PSC-833 for MDR1, reserpine for BCRP-1 and MK571 or probenecid for MRP-1) are used to evaluate the contribution of each transporter to drug efflux
(§5) Cells are thawed, counted and resuspended at 0.222×10^6/ml in RPMI 10% FBS. This example uses 100,000 cells in 450 microliters aliquoted into 6 columns of a 96 well Deep-Well “Cell Plate”. However, the experimental setup is not limited to using 100,000 cells/condition. KG-1 cells are included as a control since they express functional MDR-1.
(§6) 10× Inhibitor or 10× Mock Solutions are prepared by the following protocols: • 10×PSC-833. Stock Conc=2 mM=2000 uM. 10× Conc=20 uM (1:100). • Combine 25 uL stock with 2475 uL DPBS/0.5% BSA • Note Final Conc DMSO=0.1% • Could likely use a range of PSC-833 Concentrations not limited to 2 uM. • This experiment uses Final Concentration of 2 uM • 10×DMSO buffer (mock) • Combine 25 uL DMSO with 2475 uL DPBS/0.5% BSA […]

[5] = test system: MDR1 drug pump activity in U937 cells; test: as above; type: cell-based; conditions: Mylotarg sensitive cell line U937
Method: as §4, §5, §6

[6] = test system: Mylotarg sensitive cell lines; test: Mylotarg exposure and modulated signaling in sensitive cell lines; type: cell-based; conditions: exposed for 5-15 minutes
Method: as §1, §2, §3

T1 sequence (P08183 whole entry): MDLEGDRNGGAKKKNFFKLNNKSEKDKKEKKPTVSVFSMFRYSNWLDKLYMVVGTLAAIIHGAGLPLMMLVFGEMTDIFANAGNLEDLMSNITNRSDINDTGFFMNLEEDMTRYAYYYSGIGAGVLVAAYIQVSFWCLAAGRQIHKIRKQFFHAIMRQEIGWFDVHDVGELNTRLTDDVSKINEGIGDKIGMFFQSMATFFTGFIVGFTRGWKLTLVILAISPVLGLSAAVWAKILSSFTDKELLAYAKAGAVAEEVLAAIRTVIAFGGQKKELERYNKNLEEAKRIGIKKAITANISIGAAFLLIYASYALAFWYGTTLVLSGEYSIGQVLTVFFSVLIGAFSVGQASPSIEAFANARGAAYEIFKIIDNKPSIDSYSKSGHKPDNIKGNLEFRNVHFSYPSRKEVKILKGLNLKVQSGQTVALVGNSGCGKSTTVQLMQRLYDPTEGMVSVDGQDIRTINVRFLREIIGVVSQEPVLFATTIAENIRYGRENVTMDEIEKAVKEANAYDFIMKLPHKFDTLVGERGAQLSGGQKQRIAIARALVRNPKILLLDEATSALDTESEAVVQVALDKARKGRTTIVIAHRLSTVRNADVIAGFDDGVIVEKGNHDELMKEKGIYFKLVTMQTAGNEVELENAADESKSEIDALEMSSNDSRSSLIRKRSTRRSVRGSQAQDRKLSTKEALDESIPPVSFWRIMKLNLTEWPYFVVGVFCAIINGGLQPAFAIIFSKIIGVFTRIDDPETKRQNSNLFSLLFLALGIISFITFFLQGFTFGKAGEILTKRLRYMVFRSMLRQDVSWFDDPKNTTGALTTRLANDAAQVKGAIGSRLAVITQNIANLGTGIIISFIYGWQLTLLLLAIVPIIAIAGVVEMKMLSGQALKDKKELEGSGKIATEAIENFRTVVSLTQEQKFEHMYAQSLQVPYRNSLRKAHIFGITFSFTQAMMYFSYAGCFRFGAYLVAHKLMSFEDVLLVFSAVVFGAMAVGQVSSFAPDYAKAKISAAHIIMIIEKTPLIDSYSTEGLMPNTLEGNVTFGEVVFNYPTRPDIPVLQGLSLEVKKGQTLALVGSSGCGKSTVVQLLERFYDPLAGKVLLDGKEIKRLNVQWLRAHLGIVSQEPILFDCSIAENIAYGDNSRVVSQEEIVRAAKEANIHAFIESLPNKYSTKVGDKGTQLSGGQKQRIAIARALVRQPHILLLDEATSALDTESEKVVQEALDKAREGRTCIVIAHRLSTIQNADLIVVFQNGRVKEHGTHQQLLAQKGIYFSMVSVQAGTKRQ

Nc1ccn([C@@H]2O[C@H](CO)[C@@H](O)[C@@H]2O)c(=O)n1 [Cytarabine]
peak plasma concentration ([1]; high dose, 3 g/m2): 2 µM
peak plasma concentration ([1]; standard dose, 100 mg/m2): approximately 40 nM

COc1cccc2c1C(=O)c1c(O)c3c(c(O)c1C2=O)C[C@@](O)(C(C)=O)C[C@@H]3O[C@H]1C[C@H](N)[C@H](O)[C@H](C)O1 [Daunorubicin]
peak plasma concentration ([1]; 25 mg/m2): 50 ng/mL
peak plasma concentration ([1]; 50 mg/m2): 200 ng/mL

COC(=O)Nc1nc2cc(C(=O)c3cccs3)ccc2[nH]1 [Nocodazole]
cell cycle arrest (Cyclin B1, p-Histone H3(S28), p-Cdk1) [2]: arrest in M rather than G2

CCCCCCCCCCCCCC(=O)O[C@@H]1[C@@H](C)[C@@]2(O)[C@@H](C=C(CO)C[C@]3(O)C(=O)C(C)=C[C@@H]23)[C@@H]2C(C)(C)[C@]12OC(C)=O [PMA, phorbol myristic acetate]
PMA-mediated p-S6 [3]: increase in p-S6

C/C=C/C[C@@H](C)C(=O)[C@H]1C(=O)N[C@@H](C(C)C)C(=O)N(C)CC(=O)N(C)[C@@H](CC(C)C)C(=O)N[C@@H](C(C)C)C(=O)N(C)[C@@H](CC(C)C)C(=O)N[C@@H](C)C(=O)N[C@H](C)C(=O)N(C)[C@@H](CC(C)C)C(=O)N(C)[C@@H](CC(C)C)C(=O)N(C)[C@@H](C(C)C)C(=O)N1C [PSC-833]
effect on MDR1 drug pump activity / intracellular levels of DIOC2(3) [4]: blocked; also recorded: significant increase in intracellular reporter
effect on intracellular levels of DIOC2(3) [5]: no effect

IL-6: cytokine modulator of JAK/STAT pathways
IL-6 mediated p-Stat1 [6]: increased

SCF: growth factor/cytokine modulator of PI3K, Ras/Raf pathways
SCF-mediated p-Akt, p-Erk, and p-S6 [3]: increase
